According to patent US6497862B2, “Composition for inhibiting body odor and uses thereof” (Kabushiki Kaisha Hayashibara, priority 2000, dated 2002):

Test: Panel test of body-odor-like smell (KAREI-SHU), 9-hexadecanoic acid heated (Experiment 3)
Parameters: key: +++: the same or higher level of odor; ++: slightly lower level of odor; +: clearly lower level of odor than that of the control system
Settings: compared with control system
Source text: Upon the HSG samples, the level of a body-odor-like smell was examined on a panel test consisting of six professional panels; the panels directly smelled the samples from each glass vial and judged the level of the smells for each samples with test saccharides based on the following four ranks, i.e., the same or higher level of odor (+++), slightly lower level of odor (++), clearly lower level of odor (+), and odorless (−) as compared with the control system. Summing up the data from the panels, the samples tested were totally evaluated.
The content of 2-nonenal in HSG was measured by GC similarly as in Experiment 1 except that 9-hexadecanoic acid or palmitoleic acid was used as a fatty acid and 2-nonenal, a volatile aldehyde, was used as a standard substance. The level of body-odor-like smell, particularly with respect to KAREI-SHU, in each sample was evaluated by panel test in accordance with the method in Experiment 1.

OC[C@H]1O[C@@](CO)(O[C@H]2O[C@H](CO)[C@@H](O)[C@H](O)[C@H]2O)[C@@H](O)[C@@H]1O [Sucrose, sucrose]
Evaluation of panel test: +++
